How the values were obtained:
Type in all cases: cell-based
[1] = molecular target: T1, Aiolos (protein product of gene IKZF3) (Homo sapiens, UniProt Q96SW2+Q9UKT9); experiment: Quantification of Aiolos degradation in OCI-LY10 cells (quantitative immunoblotting); conditions: 6 h treatment
T1 construct: endogenous in cells; host or cells: OCI-LY10
Method: (§1) Degradation of Ikaros (protein product of gene IKZF1) and Aiolos (protein product of gene IKZF3) were determined by quantitative immunoblotting as follows. OCI-LY10 cells, 2×10^6 cells/well, were treated with listed concentrations of IRAK4 degraders or control compounds in 6 well plates for 6 h. Cells were collected, washed with cold PBS, lysed in RIPA buffer (Boston BioProducts BP-115D) with protease/phosphatase inhibitor cocktail (Roche 05892791001/Roche 04906837001) and centrifuged at 13000 RPM for 20 min to precipitate insoluble material. The supernatant fraction was diluted in SDS-PAGE loading buffer (Beyotime Bio P0015) and 20 μL of each sample was resolved on 4-12% Bis-Tris SDS-PAGE gels (Novex, WG1402BOX). Resolved samples were transferred to nitrocellulose membranes by wet electro-transfer method at 250 mV for 1.5 h. The membrane was blocked with LICOR blocking buffer (LI-COR, 927-50000) for 1 hour, washed three times with TBST (CST #99975) for 5 minutes each and incubated with primary antibody prepared in block buffer with 0.1% Tween-20 (Solarbio, P8220) at 4° C. overnight. Ikaros antibody was rabbit monoclonal D6N9Y (CST #14859), at 1:1000 dilution. Aiolos antibody was rabbit monoclonal D1C1E (CST #15103), at 1:1000 dilution. Signal was normalized to mouse anti-beta-Actin monoclonal 8H10D10 (CST #3700) used at 1:10,000 dilution. After incubation in primary antibodies, membranes were washed three times with TBST, 5 minutes each, incubated with fluorescently labeled secondary antibodies anti-rabbit IgG (Licor, 926-32211) at 1:5000 dilution; anti-mouse IgG (LI-COR, 926-68070) at 1:5000 dilution, for 1 hour at RT. After incubation in secondary, membranes were washed three times with TBST, 5 minutes each and read on LICOR Odyssey imager. Data was reported as signal for Ikaros or Aiolos relative to signal for actin, and normalized to DMSO-treated control.

[2] = molecular target: T2, Ikaros (protein product of gene IKZF1) (Homo sapiens, UniProt Q13422+Q96SW2); experiment: Quantification of Ikaros degradation in OCI-LY10 cells (quantitative immunoblotting); conditions: 6 h treatment
T2 construct: endogenous in cells; host or cells: OCI-LY10
T2 sequence (Q13422 whole entry): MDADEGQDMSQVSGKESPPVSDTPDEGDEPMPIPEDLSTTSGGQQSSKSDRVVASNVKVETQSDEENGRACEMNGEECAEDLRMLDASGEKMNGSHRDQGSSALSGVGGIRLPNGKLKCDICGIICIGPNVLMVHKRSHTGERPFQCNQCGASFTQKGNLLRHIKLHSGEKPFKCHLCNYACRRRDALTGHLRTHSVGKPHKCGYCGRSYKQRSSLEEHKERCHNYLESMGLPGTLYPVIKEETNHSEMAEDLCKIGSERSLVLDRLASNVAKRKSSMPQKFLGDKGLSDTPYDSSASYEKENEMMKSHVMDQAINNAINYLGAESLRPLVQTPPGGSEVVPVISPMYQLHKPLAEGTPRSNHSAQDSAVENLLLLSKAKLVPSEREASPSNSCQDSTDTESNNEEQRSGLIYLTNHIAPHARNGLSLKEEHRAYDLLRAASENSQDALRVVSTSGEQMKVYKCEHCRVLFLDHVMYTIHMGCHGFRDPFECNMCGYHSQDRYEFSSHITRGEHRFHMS
T2 sequence (Q96SW2 whole entry): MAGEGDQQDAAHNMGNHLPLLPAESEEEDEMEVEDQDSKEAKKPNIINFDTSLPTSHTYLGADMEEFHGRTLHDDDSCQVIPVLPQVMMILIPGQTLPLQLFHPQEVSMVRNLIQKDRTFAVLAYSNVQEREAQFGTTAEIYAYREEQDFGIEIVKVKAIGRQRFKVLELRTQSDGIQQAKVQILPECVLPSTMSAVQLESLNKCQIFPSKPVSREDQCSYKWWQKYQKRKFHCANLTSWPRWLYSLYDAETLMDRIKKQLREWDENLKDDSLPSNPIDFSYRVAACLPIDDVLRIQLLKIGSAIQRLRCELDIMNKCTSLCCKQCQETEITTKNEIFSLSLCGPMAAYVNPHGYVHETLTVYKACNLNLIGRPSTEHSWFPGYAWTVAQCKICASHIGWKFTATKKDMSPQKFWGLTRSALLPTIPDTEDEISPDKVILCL
T2 sequence (Q16531 whole entry partner): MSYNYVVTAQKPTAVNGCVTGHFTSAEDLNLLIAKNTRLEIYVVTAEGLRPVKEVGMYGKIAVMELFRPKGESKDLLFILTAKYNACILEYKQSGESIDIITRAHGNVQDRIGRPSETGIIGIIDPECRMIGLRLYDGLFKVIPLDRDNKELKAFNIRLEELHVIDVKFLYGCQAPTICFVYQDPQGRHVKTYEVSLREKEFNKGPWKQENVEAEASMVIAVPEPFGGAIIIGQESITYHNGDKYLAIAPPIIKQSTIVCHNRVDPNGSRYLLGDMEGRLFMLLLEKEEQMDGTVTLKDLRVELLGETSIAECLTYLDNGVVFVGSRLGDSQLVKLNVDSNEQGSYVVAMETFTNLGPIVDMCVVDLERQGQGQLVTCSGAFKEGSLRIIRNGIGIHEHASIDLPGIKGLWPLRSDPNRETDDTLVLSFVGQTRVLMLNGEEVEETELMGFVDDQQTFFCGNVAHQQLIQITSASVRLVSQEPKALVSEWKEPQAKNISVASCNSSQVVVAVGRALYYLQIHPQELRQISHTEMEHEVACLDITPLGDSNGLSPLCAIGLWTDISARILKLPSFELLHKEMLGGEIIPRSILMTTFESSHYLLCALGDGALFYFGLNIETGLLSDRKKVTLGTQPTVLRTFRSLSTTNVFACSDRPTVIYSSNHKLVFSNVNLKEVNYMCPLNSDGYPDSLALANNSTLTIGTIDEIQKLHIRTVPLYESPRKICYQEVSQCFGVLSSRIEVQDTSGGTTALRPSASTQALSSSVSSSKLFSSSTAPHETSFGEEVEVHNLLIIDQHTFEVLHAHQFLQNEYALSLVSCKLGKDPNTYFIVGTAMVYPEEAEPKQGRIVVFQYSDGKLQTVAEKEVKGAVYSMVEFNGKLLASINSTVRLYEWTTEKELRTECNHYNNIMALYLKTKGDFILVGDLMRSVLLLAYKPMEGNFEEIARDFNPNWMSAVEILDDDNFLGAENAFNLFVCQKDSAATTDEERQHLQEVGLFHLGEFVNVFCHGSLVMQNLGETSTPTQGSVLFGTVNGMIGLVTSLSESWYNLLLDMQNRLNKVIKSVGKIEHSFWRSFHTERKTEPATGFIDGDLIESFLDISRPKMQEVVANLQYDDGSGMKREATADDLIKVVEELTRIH
Method: as §1

OCI-LY10 cells = experiment: CTG Cell Viability Assay - OCI-LY10; conditions: Homo sapiens, 96 h, CellTiter-Glo, 4 days incubation
Method: Compound-mediated viability effect on OCI-LY10 or SUDHL-2 was quantitatively determined using the CellTiter-Glo® Luminescent Cell Viability Assay kit from Promega (Catalog number G7570) following manufacturer's recommended procedures. Briefly, OCI-LY10 or SUDHL-2 cells were seeded into 384 well plates (Grenier Bio-One, Catalog number 781080) with a density of 10,000 cells per well. Compounds were then added to the assay plate with final top concentration of 10 μM and 1:3 dilution series with total of 9 doses. The final DMSO concentration was normalized to 0.2%. The assay plates were incubated at 37° C. for 4 days under 5% CO2. Then the assay plate was equilibrated at room temperature for 10 minutes. To determine cell viability, 30 μL CellTiter Glo reagent was added to each well and the assay plate was centrifuged at 1000 rpm for 30 second, incubated at room temperature for 10 min, and analyzed by detecting the luminescence using a multimode plate reader (EnVision 2105, PerkinElmer). The data was then analyzed by software Prism 7.0 from GraphPad and the dose response curves were fit using a three-parameter logistic equation to calculate IC50.

IRAK4 = molecular target: T3, IRAK4 (Homo sapiens, UniProt Q9NWZ3); experiment: IRAK4 MSD Degradation in OCI-LY10; conditions: OCI-LY10 cells, 24 hrs incubation; read-out: IRAK4 degradation in OCI-LY10 at 24 hrs: DC50
T3 construct: endogenous in cells; host or cells: OCI-LY10
T3 sequence (Q9NWZ3 1-460): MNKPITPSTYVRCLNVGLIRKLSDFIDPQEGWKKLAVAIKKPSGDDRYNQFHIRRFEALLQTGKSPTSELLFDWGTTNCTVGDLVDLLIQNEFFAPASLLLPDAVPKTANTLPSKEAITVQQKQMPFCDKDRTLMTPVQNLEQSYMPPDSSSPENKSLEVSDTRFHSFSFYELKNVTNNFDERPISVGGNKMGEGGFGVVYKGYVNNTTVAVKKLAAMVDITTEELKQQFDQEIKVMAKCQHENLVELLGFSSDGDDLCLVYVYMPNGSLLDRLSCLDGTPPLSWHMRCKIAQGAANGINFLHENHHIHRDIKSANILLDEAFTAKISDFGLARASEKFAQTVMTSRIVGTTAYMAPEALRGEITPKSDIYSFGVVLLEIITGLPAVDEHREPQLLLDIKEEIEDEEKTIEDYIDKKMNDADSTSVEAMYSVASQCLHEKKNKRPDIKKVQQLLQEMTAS
Method: Degradation of IRAK4 in OCI-LY10 was quantitatively measured using Meso Scale Discovery technology. OCI-LY10 cells were seeded in 96-well plates (Corning 3799) with a density of 300,000 cells per well in 100 μL fresh media. Compounds were then added to the assay plates with a final top concentration of 1 to 10 μM in a 1:3 dilution series with total of 8 doses. The assay plates were then incubated for 4 to 24 hours at 37° C. under 5% CO2. The assay plates were then centrifuged for 5 minutes and the cell pellets were treated with 100 μL/well RIPA lysis buffer (Boston BioProducts BP-115D) with proteinase inhibitors. To prepare MSD assay plates (Meso Scale Discovery Catalog number L15XA-3), the plates were coated with 2 μg/mL capture antibody (mouse Anti-IRAK4 antibody [2H9], ab119942) in PBS, at 40 μL/well. The plates were then incubated overnight at 4° C., washed 3 times with 150 μL/well TBST buffer (Cell Signaling Technology, Catalog number 9997S) and blocked with 150 μL/well blocking buffer (Meso Scale Discovery Catalog number R93BA-4). Cell lysates were then added to MSD assay plates and the plates were incubated at room temperature for 1 hour. The plates were then washed 3 times with 150 μL/well TBST buffer and 25 μL/well primary detection antibody (rabbit Anti-IRAK4 antibody [Y279], from Abcam. Catalog number ab32511, 1 μg/mL). The assay plates were then incubated at room temperature for 1 hour, washed 3 times with 150 μL/well TBST buffer and 25 μL/well secondary detection antibody, SULFO-TAG anti-rabbit antibody were added (anti rabbit antibody from Meso Scale Discovery, Catalog number R32AB-1, 1 μg/mL). The assay plates were then incubated at room temperature for 1 hour, washed 3 times with 150 μL/well TBST buffer, and 150 μL/well MSD reading buffer (Meso Scale Discovery catalog number R92TC-2) was added. The plates were then analyzed by a MSD reader (Meso Scale Discovery, Model Quick Plex SQ 120). The data was then analyzed by software Prism 7.0 from GraphPad and the dose-depended IRAK4 degradation were fit using a three-parameter logistic equation to calculate DC50.

T1 sequence (Q9UKT9 whole entry): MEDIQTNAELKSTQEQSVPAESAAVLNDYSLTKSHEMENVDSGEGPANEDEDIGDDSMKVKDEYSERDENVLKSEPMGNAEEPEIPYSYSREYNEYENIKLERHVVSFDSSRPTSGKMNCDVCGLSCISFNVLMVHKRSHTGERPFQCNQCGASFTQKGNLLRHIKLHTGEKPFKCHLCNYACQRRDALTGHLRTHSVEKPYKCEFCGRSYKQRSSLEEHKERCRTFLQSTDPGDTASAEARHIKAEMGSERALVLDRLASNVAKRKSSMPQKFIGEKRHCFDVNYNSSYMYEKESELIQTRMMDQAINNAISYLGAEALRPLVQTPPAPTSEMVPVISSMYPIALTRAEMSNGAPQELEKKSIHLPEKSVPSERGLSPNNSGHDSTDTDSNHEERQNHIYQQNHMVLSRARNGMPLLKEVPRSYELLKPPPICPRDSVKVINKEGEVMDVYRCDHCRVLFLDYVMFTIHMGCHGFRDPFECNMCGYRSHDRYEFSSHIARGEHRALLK
T1 sequence (Q96SW2 whole entry): as the sequence (Q96SW2 whole entry) above
T1 sequence (Q16531 whole entry partner): as the sequence (Q16531 whole entry partner) above

| SMILES | DC50 [1] [µM] | DC50 [2] [µM] | IC50 (OCI-LY10 cells) [µM] | DC50 (IRAK4) [µM] |
| --- | --- | --- | --- | --- |
| CC(C)(O)c1cc2nc([C@H]3CC[C@H](CN4CC5(CCC(CNc6cccc7c6C(=O)N(C6CCC(=O)NC6=O)C7=O)CC5)C4)CC3)sc2cc1NC(=O)c1cccc(C(F)(F)F)n1 (stereo partly drawn) [I-30] | < 0.05 | < 0.05 | 0.05 to 0.1 | < 0.05 |
| COc1cc2nc([C@H]3CC[C@H](CN4CC5(CCC(CNc6cccc7c6C(=O)N(C6CCC(=O)NC6=O)C7=O)CC5)C4)CC3)sc2cc1NC(=O)c1cccc(C(F)(F)F)n1 (stereo partly drawn) [I-20] | 0.1 to 0.5 | 0.1 to 0.5 | < 0.05 | 0.05 to 0.1 |
| CC(C)(O)c1cc2nc([C@H]3CC[C@H](CN4CC5(CC(CCNc6cccc7c6C(=O)N(C6CCC(=O)NC6=O)C7=O)C5)C4)CC3)sc2cc1NC(=O)c1ccnc(C(F)(F)F)n1 (stereo partly drawn) [I-54] | < 0.05 | < 0.05 | < 0.05 | 0.1 to 0.5 |
| CC(C)(O)c1cc2nc([C@H]3CC[C@H](CN4CC5(CC(CCNc6cccc7c6C(=O)N(C6CCC(=O)NC6=O)C7=O)C5)C4)CC3)sc2cc1NC(=O)c1ccc(C(F)(F)F)nn1 (stereo partly drawn) [I-55] | < 0.05 | < 0.05 | < 0.05 | > 1 |
| CC(C)(O)c1cc2nc([C@H]3CC[C@H](CN4CC5(CC(CNc6cccc7c6C(=O)N(C6CCC(=O)NC6=O)C7=O)C5)C4)CC3)sc2cc1NC(=O)c1cccc(C(F)(F)F)n1 (stereo partly drawn) [I-26] | < 0.05 | < 0.05 | 0.05 to 0.1 | < 0.05 |
| C[C@H](CNc1cccc2c1C(=O)N(C1CCC(=O)NC1=O)C2=O)C1CC2(C1)CN(C[C@H]1CC[C@H](c3nc4cc(C(C)(C)O)c(NC(=O)c5cccc(C(F)(F)F)n5)cc4s3)CC1)C2 (stereo partly drawn) [I-31] | < 0.05 | < 0.05 | < 0.05 | < 0.05 |
| Cc1cc(F)cc(C(=O)Nc2cc3sc([C@H]4CC[C@H](CN5CC6(CC(CCNc7cccc8c7C(=O)N(C7CCC(=O)NC7=O)C8=O)C6)C5)CC4)nc3cc2C(C)(C)O)n1 (stereo partly drawn) [I-33] | < 0.05 | < 0.05 | < 0.05 | < 0.05 |
| CC(C)(O)c1cc2nc([C@H]3CC[C@H](CN4CC5(CC(CCNc6cccc7c6C(=O)N(C6CCC(=O)NC6=O)C7=O)C5)C4)CC3)sc2cc1-n1ccc2ccccc2c1=O (stereo partly drawn) [I-40] | < 0.05 | < 0.05 | < 0.05 | 0.1 to 0.5 |
| CC(C)(O)c1cc2nc([C@H]3CC[C@H](N4CC5(CC(CCNc6cccc7c6C(=O)N(C6CCC(=O)NC6=O)C7=O)C5)C4)CC3)sc2cc1NC(=O)c1cccc(C(F)(F)F)n1 (single isomer, unassigned) [I-63] | < 0.05 | < 0.05 | < 0.05 | < 0.05 |
| CN(C[C@H]1CC[C@H](c2nc3cc(C(C)(C)O)c(NC(=O)c4cccc(C(F)(F)F)n4)cc3s2)CC1)[C@H]1CC[C@H](Nc2cccc3c2C(=O)N(C2CCC(=O)NC2=O)C3=O)CC1 (stereo partly drawn) [I-28] | < 0.05 | 0.05 to 0.1 | 0.1 to 0.5 | < 0.05 |
| CN(C[C@H]1CC[C@H](c2nc3cc(C(C)(C)O)c(NC(=O)c4cccc(C(F)(F)F)n4)cc3s2)CC1)[C@H]1CC[C@@H](CNc2cccc3c2C(=O)N(C2CCC(=O)NC2=O)C3=O)CC1 (stereo partly drawn) [I-48] | < 0.05 | < 0.05 | 0.05 to 0.1 | > 1 |
| COc1cc2nc([C@H]3CC[C@H](CN(C)[C@H]4CC[C@]5(CC4)C[C@@H](CNc4cccc6c4C(=O)N(C4CCC(=O)NC4=O)C6=O)C5)CC3)sc2cc1NC(=O)c1cccc(C(F)(F)F)n1 (stereo partly drawn) [I-21] | < 0.05 | 0.05 to 0.1 | 0.1 to 0.5 | 0.1 to 0.5 |
| COc1cc2nc([C@H]3CC[C@H](CN4CC5(CC(CCNc6cccc7c6C(=O)N(C6CCC(=O)NC6=O)C7=O)C5)C4)CC3)sc2cc1-n1ccc2ccccc2c1=O (stereo partly drawn) [I-42] | < 0.05 | < 0.05 | < 0.05 | 0.05 to 0.1 |
| CC(C)(O)c1cc2nc(N3CCC(CN4CCC5(CC4)CC(CNc4cccc6c4C(=O)N(C4CCC(=O)NC4=O)C6=O)C5)CC3)sc2cc1NC(=O)c1cccc(C(F)(F)F)n1 (stereo not drawn) [I-35] | < 0.05 | < 0.05 | 0.5 to 1 | 0.05 to 0.1 |
| Cc1cccc(C(=O)Nc2cc3sc([C@H]4CC[C@H](CN(C)[C@H]5CC[C@H](Nc6cccc7c6C(=O)N(C6CCC(=O)NC6=O)C7=O)CC5)CC4)nc3cc2C(C)(C)O)n1 (stereo partly drawn) [I-23] | < 0.05 | 0.1 to 0.5 | 0.1 to 0.5 | < 0.05 |
| CC(C)(O)c1cc2nc([C@H]3CC[C@H](CN4CCC5(CC4)CC4(CC(CCNc6cccc7c6C(=O)N(C6CCC(=O)NC6=O)C7=O)C4)C5)CC3)sc2cc1NC(=O)c1cccc(C(F)(F)F)n1 (stereo partly drawn) [I-59] | 0.1 to 0.5 | 0.1 to 0.5 | 0.1 to 0.5 | 0.1 to 0.5 |
| CC(C)(O)c1cc2nc([C@H]3CC[C@H](CN4CC5(CC(CCNc6cccc7c6C(=O)N(C6CCC(=O)NC6=O)C7=O)C5)C4)CC3)sc2cc1NC(=O)c1cccc(C(F)F)n1 (stereo partly drawn) [I-47] | < 0.05 | < 0.05 | < 0.05 | < 0.05 |
| COc1cc2nc([C@H]3CC[C@H](CN4CCC5(CC4)CC(CCNc4cccc6c4C(=O)N(C4CCC(=O)NC4=O)C6=O)C5)CC3)sc2cc1NC(=O)c1cccc(C(C)(F)F)n1 (stereo partly drawn) [I-19] | < 0.05 | 0.05 to 0.1 | 0.1 to 0.5 | 0.05 to 0.1 |
